Assays:
Test in all cases: stopped-flow CO2 hydration
Format in all cases: biochemical
[1] = molecular target: T1, hCA II (Homo sapiens, UniProt P00918); details: read-out: hCAII
T1 construct: gene CA2; recombinant, cytosolic isoform
Procedure, shortened: (§1)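 Inhibition of recombinant human isozymes was measured by stopped-flow CO2 hydration, and Ki was obtained by non-linear least-squares fitting with the Cheng-Prusoff equation. Enzyme and inhibitor were first preincubated for 10 min at room temperature, then the reaction was followed for 5–10 s at 557 nm and 25 °C in 10 mM Hepes pH 7.4 containing 0.2 mM Phenol Red and 0.1 M Na2SO4 or NaClO4, with CO2-saturated water as substrate. Each value is the mean of at least three determinations, from at least seven inhibitor concentrations down to 0.01 nM tested in triplicate.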

[2] = molecular target: T2, hCA I (Homo sapiens, UniProt P00915)
T2 construct: gene CA1; recombinant, cytosolic isoform
T2 sequence (P00915 2-261): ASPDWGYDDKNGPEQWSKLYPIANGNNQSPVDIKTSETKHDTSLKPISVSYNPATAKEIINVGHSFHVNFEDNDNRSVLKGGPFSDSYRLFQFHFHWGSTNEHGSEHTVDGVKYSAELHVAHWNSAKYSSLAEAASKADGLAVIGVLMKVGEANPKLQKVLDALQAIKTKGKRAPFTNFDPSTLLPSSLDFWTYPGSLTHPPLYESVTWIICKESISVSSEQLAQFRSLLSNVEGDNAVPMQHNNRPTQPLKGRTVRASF
Procedure, shortened: as §1

[3] = molecular target: T3, hCA IV (Homo sapiens, UniProt P22748)
T3 construct: gene CA4
T3 sequence (P22748 19-284): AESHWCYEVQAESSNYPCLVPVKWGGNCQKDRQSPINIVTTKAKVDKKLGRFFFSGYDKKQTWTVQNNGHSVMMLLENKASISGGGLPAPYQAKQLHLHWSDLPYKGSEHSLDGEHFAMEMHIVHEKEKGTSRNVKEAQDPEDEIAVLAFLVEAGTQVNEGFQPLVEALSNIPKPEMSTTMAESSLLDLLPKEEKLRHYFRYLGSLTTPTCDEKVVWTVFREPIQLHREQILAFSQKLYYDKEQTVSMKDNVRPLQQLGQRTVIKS
Procedure, shortened: as §1

[4] = molecular target: T4, hCA IX (Homo sapiens, UniProt Q16790)
T4 construct: gene CA9; recombinant, transmembrane isoform
Procedure, shortened: as §1

Ki [1] [nM] | Ki [2] [nM] | Ki [3] [nM] | Ki [4] [nM] | Structure (SMILES)
329 | 426 | 5310 | 30.8 | NS(=O)(=O)c1cc(C(=O)NCc2cn(-c3cccc(F)c3)nn2)ccc1F [6q, 4-Fluoro-N-((1–(3-fluorophenyl)-1H-1,2,3-triazol-4-yl)methyl)-3-sulfamoylbenzamide]
260 | 836 | 215 | 67.5 | Cc1ccc(-n2cc(CNC(=O)c3ccc(F)c(S(N)(=O)=O)c3)nn2)cc1 [6r, 4-Fluoro-3-sulfamoyl-N-((1-(p-tolyl)-1H-1,2,3-triazol-4-yl)methyl)benzamide]
402 | 696 | 3400 | 67.9 | N#Cc1cccc(-n2cc(CNC(=O)c3ccc(F)c(S(N)(=O)=O)c3)nn2)c1 [6s, N-((1–(3-cyanophenyl)-1H-1,2,3-triazol-4-yl)methyl)-4-fluoro-3-sulfamoylbenzamide]
372 | 696 | 515 | 71.5 | NS(=O)(=O)c1cc(C(=O)NCc2cn(-c3ccc(Br)cc3)nn2)ccc1F [6t, N-((1–(4-bromophenyl)-1H-1,2,3-triazol-4-yl)methyl)-4-fluoro-3-sulfamoylbenzamide]
